Measured values reported in ChEMBL document CHEMBL4251726, “ATR Inhibitors as Potential Treatment for Cancers” (ACS Med Chem Lett, 2018).

How the values were obtained:
[1] = molecular target: T1, Serine/threonine-protein kinase ATR (Homo sapiens, UniProt Q13535); assay: Inhibition of ATR in human U2OS cells harboring ER-LBD fused TopBPI activation domain (978 to 1286 residues) assessed as reduction in 4-OHT-mediated nuclear translocation of TopBPI fragment by measuring gammaH2AX level after 24 hrs by Alexa Fluor 488 staining based fluorescence assay; type: cell-based
T1 sequence (Q13535 whole entry, the tested form may be a part): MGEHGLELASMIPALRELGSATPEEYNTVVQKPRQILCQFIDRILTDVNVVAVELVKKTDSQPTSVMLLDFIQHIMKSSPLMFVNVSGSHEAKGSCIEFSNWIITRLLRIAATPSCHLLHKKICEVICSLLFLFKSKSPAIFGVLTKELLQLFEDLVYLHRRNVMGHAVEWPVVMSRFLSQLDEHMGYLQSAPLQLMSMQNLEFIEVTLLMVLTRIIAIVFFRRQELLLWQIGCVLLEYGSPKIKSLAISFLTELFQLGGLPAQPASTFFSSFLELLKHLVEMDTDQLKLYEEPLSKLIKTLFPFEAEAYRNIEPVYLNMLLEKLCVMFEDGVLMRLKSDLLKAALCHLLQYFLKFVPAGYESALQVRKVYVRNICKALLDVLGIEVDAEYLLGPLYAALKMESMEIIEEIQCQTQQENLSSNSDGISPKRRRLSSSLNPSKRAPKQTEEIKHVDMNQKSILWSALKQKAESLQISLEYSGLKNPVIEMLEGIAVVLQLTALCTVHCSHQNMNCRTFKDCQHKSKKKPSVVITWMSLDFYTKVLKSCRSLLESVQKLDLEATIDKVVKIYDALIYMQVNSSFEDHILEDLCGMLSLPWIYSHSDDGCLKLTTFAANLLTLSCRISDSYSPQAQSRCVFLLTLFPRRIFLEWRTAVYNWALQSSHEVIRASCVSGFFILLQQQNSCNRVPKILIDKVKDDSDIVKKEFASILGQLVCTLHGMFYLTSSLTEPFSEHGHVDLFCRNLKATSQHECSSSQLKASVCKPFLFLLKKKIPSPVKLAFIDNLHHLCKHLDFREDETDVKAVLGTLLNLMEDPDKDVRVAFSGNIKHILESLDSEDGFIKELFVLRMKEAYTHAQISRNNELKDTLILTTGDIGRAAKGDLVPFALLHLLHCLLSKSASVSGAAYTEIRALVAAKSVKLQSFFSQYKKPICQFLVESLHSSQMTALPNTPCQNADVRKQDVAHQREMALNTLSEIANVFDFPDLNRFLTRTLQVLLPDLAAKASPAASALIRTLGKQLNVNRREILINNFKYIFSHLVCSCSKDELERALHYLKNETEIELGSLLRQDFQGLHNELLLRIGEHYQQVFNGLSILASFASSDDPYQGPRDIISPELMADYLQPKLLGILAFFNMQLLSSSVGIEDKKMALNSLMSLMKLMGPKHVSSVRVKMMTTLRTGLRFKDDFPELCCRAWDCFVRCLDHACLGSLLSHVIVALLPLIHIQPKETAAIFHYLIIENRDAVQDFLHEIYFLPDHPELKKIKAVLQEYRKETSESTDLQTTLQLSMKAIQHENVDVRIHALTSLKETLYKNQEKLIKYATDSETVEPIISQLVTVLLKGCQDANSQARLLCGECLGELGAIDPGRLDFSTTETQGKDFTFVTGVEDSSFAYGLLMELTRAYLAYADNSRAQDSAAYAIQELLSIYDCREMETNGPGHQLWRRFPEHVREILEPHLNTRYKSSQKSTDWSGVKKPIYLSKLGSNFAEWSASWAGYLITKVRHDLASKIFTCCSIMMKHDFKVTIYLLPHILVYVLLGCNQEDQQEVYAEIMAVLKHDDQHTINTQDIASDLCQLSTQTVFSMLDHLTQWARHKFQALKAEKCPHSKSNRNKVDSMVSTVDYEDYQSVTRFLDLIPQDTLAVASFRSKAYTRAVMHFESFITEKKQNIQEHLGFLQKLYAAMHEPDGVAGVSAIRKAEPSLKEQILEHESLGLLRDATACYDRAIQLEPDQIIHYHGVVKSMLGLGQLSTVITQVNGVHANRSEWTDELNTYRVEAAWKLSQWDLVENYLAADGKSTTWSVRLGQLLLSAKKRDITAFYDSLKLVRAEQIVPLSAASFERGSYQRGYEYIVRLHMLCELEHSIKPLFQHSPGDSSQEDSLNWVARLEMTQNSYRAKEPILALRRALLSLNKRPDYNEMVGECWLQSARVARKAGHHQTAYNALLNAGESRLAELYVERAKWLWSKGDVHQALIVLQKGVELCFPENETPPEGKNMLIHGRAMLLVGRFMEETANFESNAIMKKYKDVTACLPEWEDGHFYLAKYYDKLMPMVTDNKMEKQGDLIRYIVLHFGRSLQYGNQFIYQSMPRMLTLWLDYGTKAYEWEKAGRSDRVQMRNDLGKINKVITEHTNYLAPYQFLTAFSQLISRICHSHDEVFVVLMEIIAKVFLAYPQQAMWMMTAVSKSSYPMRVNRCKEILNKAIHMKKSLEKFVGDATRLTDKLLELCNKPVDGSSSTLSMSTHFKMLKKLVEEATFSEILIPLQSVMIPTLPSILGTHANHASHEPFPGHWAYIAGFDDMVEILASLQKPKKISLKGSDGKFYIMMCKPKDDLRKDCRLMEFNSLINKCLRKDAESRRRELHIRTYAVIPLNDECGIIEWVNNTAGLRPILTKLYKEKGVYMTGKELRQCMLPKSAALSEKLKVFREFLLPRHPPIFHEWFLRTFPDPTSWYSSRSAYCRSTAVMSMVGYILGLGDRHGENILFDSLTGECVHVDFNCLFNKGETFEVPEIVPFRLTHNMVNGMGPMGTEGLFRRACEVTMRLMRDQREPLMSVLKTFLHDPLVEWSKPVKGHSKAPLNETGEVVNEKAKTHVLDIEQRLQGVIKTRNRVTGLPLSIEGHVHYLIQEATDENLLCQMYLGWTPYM

[2] = molecular target: ATR/ATRIP (Homo sapiens, UniProt Q13535); assay: Inhibition of recombinant human full length ATR/ATRIP expressed in mammalian expression system using c-Myc-tagged p53 as substrate incubated for 15 mins followed by substrate addition measured after 25 to 35 mins by TR-FRET assay
Sequence of ATR/ATRIP (Q13535 whole entry): as the sequence (Q13535 whole entry, the tested form may be a part) above
Sequence of ATR/ATRIP (Q8WXE1 whole entry, further chain): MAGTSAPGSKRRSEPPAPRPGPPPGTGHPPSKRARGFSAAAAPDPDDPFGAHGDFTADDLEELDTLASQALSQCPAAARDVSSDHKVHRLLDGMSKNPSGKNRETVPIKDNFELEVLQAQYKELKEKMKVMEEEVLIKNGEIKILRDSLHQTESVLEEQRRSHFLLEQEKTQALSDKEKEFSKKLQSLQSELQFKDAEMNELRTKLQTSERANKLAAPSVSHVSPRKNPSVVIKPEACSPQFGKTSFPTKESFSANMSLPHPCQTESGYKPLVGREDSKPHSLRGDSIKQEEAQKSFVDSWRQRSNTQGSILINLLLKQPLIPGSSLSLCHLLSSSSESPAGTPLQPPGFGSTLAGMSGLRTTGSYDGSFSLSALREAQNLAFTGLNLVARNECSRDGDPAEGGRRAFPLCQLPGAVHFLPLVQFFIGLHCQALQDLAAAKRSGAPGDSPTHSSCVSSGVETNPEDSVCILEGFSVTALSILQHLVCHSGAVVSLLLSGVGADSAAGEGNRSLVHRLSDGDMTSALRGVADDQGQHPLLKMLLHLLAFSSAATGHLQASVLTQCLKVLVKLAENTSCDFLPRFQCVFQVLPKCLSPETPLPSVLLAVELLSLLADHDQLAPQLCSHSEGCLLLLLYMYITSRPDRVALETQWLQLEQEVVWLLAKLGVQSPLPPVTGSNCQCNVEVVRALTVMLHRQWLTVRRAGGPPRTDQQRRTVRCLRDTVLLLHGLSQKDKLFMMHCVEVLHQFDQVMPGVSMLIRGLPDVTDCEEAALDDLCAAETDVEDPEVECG

[3] = molecular target: T1, Serine/threonine-protein kinase ATR; assay: Inhibition of ATR in human HT29 cells assessed as reduction in Chk1 phosphorylation at Ser345 residues after 4 hrs by Alexa Fluor 488 staining based fluorescence assay; type: cell-based

| Compound | IC50 [1] [µM] | IC50 [2] [µM] | IC50 [3] [µM] |
| --- | --- | --- | --- |
| CNc1nc2ccccc2n1-c1nc2c(c(C(C)(C)S(C)(=O)=O)n1)OC[C@@H]1COC[C@@H](C)N21 | < 0.01 | < 0.001 | < 0.01 |
| C[C@@H]1COC[C@H]2COc3c(nc(N(C)c4ccn[nH]4)nc3C(C)(C)S(C)(=O)=O)N21 | – | 0.01 to 0.1 | – |
| CNc1cnc2[nH]ccc2c1-c1nc2c(c(C(C)(C)S(C)(=O)=O)n1)OC[C@@H]1COC[C@@H](C)N21 | 0.01 to 0.1 | < 0.001 | < 0.01 |
| CNc1nccn1-c1nc2c(c(C(C)(C)S(C)(=O)=O)n1)OC[C@@H]1COC[C@@H](C)N21 | 0.1 to 1 | 0.01 to 0.1 | – |
| CCNc1cnc2[nH]ccc2c1-c1nc2c(c(C(C)(C)S(C)(=O)=O)n1)OC[C@@H]1COC[C@@H](C)N21 | – | 0.001 to 0.01 | 0.01 to 0.1 |
| CNc1cnc2[nH]ccc2c1-c1nc2c(c(C(C)(C)O)n1)OC[C@@H]1COC[C@@H](C)N21 | 0.01 to 0.1 | < 0.001 | 0.01 to 0.1 |
